Measured values: PubChem BioAssay AID977607 (Broad Institute, 2014)
“And” between values parts separate entries of the source, which are not always exact repeats. Equal values may be shown once. The source made the active and inactive calls.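 Rule for the calls: active = curve reaches 40% activation over neutral controls at an AC40 no higher than the top valid tested concentration; inconclusive = no clear call, values can overlap the other calls; inactive = signal moving opposite to the expected increase, and the rest.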

These compounds were tested on INS-1E GLuc insulin secretion reporter, luminescence, 2-3 h (assay: GLuc-reported insulin release enhancers, glucose-stimulated beta cells – cell-based, INS-1E, Gaussia luciferase, luminescence, cherry-pick, set 2, dose response (AID 977607)).

SMILES | AC40
OC[C@@H]1[C@@H](c2ccc(C#CC3CCCC3)cc2)[C@H]2CN(CCC(F)(F)F)CCCCN12 | 8.56 µM
CCCCc1c(Cc2ccccc2)ncn1CCc1ccccc1OC | 14.3 µM
Cc1cc(Cl)ccc1Oc1nc(-c2ccccc2)ncc1S(C)(=O)=O | 4.28 µM
CS(=O)(=O)c1cnc(-c2ccccc2)nc1Oc1ccc(F)cc1 | 15.1 µM
COc1ccc2c(c1)C(=NNC(=O)c1ccccn1)c1cc(OC)ccc1-2 | 3.1 µM
Cc1ccc(C)c(OCC(=O)Nc2nonc2NC(=O)COc2cc(C)ccc2C)c1 | 5.44 µM
Cc1nc(NC(=O)c2cccc(-c3cc4ccccc4oc3=O)c2)ccc1Br | 12.7 µM
Cc1cc(Nc2ccc(Cl)cc2)nc(NCc2ccccc2)n1 | 9.24 µM
O=c1c(C=Nc2ccc(Oc3ccccc3)cc2)c[nH]n1-c1cccc(Cl)n1 | 6.27 µM
COC(=O)C1=C(C)N(Cc2ccc(C(F)(F)F)cc2)C(=NCc2ccccc2)NC1c1ccc(Cl)cc1 (centres undefined) | 8.24 µM
COc1ccc(Cn2c(=O)c3[nH]cnc3n(-c3ccccc3C)c2=O)cc1 | 10.4 µM
COc1cc2c(cc1OC)-c1cc(Nc3ccccc3C)nc(=O)n1CC2 | 0.408 µM
CCOc1cccc(-c2csc(C3COc4ccccc4O3)n2)c1 (centres undefined) | 3.7 µM
Cc1ccc(NC(=O)c2oc3ccc(S(=O)(=O)N4CCOCC4)cc3c2C)cc1C | 15.6 µM
O=C(Nc1ccccc1)c1nnsc1S(=O)(=O)c1ccc(Cl)cc1 | 1.21 µM
COc1ccc(C2=NN(C(=O)CCCC(=O)O)C(c3cccs3)C2)cc1OC (centres undefined) | 11.6 µM
Cc1cc(C)c2oc(C(=O)Nc3ccc(S(=O)(=O)Nc4nccc(C)n4)cc3)cc(=O)c2c1 | 8.73 µM
NC(CCc1ccccc1)c1csc(Nc2ccc(C(F)(F)F)cn2)n1 (centres undefined) | 10.4 µM
O=C(c1ccc(F)cc1)N1C[C@@H]2N[C@H](C1)C2c1ccc(/C=C/c2ccccc2)cc1 (some centres undefined) | 6.56 µM
CC(C)(C)S(=O)N1Cc2cc(C(=O)Nc3ccc(-c4ccccc4)cc3)nc(-c3cccc(-c4cccc(F)c4)c3)c2[C@@H]1CCO (some centres undefined) | 6.27 µM
Cc1ccc(C(=O)Oc2ccc(-c3nccc(-c4ccccn4)n3)cc2)cc1 | 3.99 µM
Cc1ccc2c(Cl)c(C)c(N3CCCCC3)nc2n1 | 11.5 µM

SMILES | AC40
COc1cc2c(cc1OC)/C(=C/C(=O)c1ccc(NC(C)=O)cc1)NCC2 | 14.6 µM
Fc1ccc(-c2ccc(C3[C@@H]4CN(Cc5ccccc5)C[C@H]3N4)cc2)cc1 (some centres undefined) | 6.57 µM
COC(=O)c1ccc(C(=O)Nc2cc(Cl)ccc2Cl)cc1NC(=O)c1ccccc1C | 2.43 µM
CCc1ccc(-c2c(C)sc(NC(=O)C3CCC3)c2C#N)cc1 | 5.78 µM
COc1cc2c(cc1OC)C1=C(C#N)CCC(=NC(=O)c3ccco3)N1CC2 | 7.7 µM
CCn1c(SCc2cc(=O)[nH]c3ccccc23)nc2c1c(=O)n(C)c(=O)n2C | 1.42 µM
Cc1cccc(S(=O)(=O)N2CCCCN3[C@@H](CO)[C@@H](c4ccc(C#CC(C)C)cc4)[C@@H]3C2)c1 | 18.2 µM
CCCCc1c(Cc2cccc(F)c2)ncn1CCc1ccccc1OC | 12.3 µM
CCC(=NC(C)c1ccccc1)c1c(O)[nH]c(=O)[nH]c1=O (centres undefined) | 11.1 µM
Cc1ccc(CC2(OCCN(C)C)CCC(C(C)(C)C)CC2)cc1 (centres undefined) | 13.9 µM
O=C(CCn1ccc2cc(S(=O)(=O)N3CCCC3)ccc21)NCc1cccc(F)c1 | 9.56 µM
CCOC(=O)c1cc2sccc2n1CC(=O)N1c2ccccc2CC1C (centres undefined) | 3.59 µM
COc1ccc(-c2nc(CCl)cs2)cc1OC | > 35 µM (inactive)
OC[C@@H]1[C@@H](c2ccc(C#CC3CCCC3)cc2)[C@@H]2CN(CCC(F)(F)F)CCCCN12 | 6.02 µM
CCCc1cc(-c2nc(-c3ccc(C)cc3)cs2)ccn1 | 10.2 µM
Cc1c(O)cnc2nn(-c3ccccc3)c(=N)n12 | > 35 µM (inactive)
O=C(Nc1nc(-c2ccc(-c3ccccc3)cc2)cs1)C1=COCCO1 | 6.8 µM
CC1CC1C(=O)Nc1cc(C(F)(F)F)ccc1N1CCOCC1 (centres undefined) | 1.46 µM
COc1ccc(-c2ccc(C3[C@@H]4CN(Cc5cccc(OC)c5)C[C@H]3N4)cc2)cc1 (some centres undefined) | 2.47 µM
NC(N)=N/N=C/c1ccc(N(c2ccccc2)c2ccccc2)cc1 | 5.68 µM
CCCc1nc2ccccc2c(=O)n1CC(=O)c1ccc(OC)cc1 | 16.4 µM
CC(C)CC(NC(=O)c1ccc(Cl)cc1)C(=O)OCC(=O)c1ccc2c(c1)NC(=O)CO2 (centres undefined) | 2.36 µM

SMILES | AC40
COc1ccc(C#Cc2ccc([C@@H]3[C@@H](CO)N4CCCCN(Cc5ccccc5F)C[C@@H]34)cc2)cc1 | 14.3 µM
CCOC(=O)c1csc(-c2ccc(OC)c(OC)c2)n1 | 2.17 µM
O=C(N/N=C/c1ccc(O)cc1O)NC12CC3CC(CC(C3)C1)C2 | 18.1 µM
COc1ccc(S(=O)(=O)N2CCc3ccccc3C2)cc1OC | 28.9 µM
COC(=O)C1=C(C)N(C)C(=NCc2cccc(C(F)(F)F)c2)NC1c1ccc(C(F)(F)F)cc1 (centres undefined) | 18.1 µM
CC(=O)Nc1cc(-c2cccc(C(=O)NCCN(C)C)c2)cn2c(-c3cccc(C(F)(F)F)c3)cnc12 | 14.7 µM
Cc1cc(C)cc(OCCCN2CCC(C(O)(c3ccccc3)c3ccccc3)CC2)c1 | 13 µM
Cc1ccc(Oc2ncc(-c3ccc(Cl)cc3)cn2)cc1 | 6.86 µM
O=C(Cn1ncc(Cl)c(Cl)c1=O)Nc1ccc2c(c1)OCO2 | 12 µM
Cc1ccc(OCC(=O)NC(=S)Nc2cccc(NC(=O)c3ccccc3)c2)cc1 | 11.3 µM
Clc1ccc(-c2ccnc(Oc3ccc4ccccc4c3)n2)cc1 | 8.45 µM
CCc1ccc(OCC(=O)NC(=S)Nc2ccc(F)cc2)c(Br)c1 | 10 µM
CCOc1ccc(CN2C(=O)c3ccccc3C2=O)cc1C(=O)Nc1nnc(SCC)s1 | 13.6 µM
COc1cc(/C=N/NC(=O)C(C)n2nnc3ccccc32)ccc1O (centres undefined) | 6.55 µM
NS(=O)(=O)c1ccc(CCNc2nc3c(-c4cccc(F)c4)nnn3c3ccccc23)cc1 | 15.9 µM
C=CCn1c(-c2csc(-c3ccc(OC)c(OC)c3)n2)n[nH]c1=S | 1.01 µM
COC(=O)c1ccc2c(=O)[nH]c(CSc3nc(-c4ccc(F)cc4)cs3)nc2c1 | 5.86 µM
COc1cc(C(=O)Nc2ccn(C)n2)ccc1OC(F)F | > 35 µM (inactive)
CS(=O)(=O)N1CCN(c2ccc(NC(=O)c3ccc(-c4ccc(Cl)cc4)o3)cc2)CC1 | 9.25 µM
Cc1ccc(-c2cc(C(=O)NCc3cnn(C)c3)c3cc(Br)ccc3n2)cc1 | 3.7 µM
COc1ccc(Br)cc1C(=O)Nc1cc(C)cc(C)c1 | 7.63 µM
Cc1ccc2oc(-c3cccc(NC(=O)Cc4cccs4)c3)nc2c1 | 5.62 µM

SMILES | AC40
CCOC(=O)Cc1nn(Cc2ccccc2)c(=O)c2ccccc12 | 1.61 µM
C(=C\c1ccc(C2[C@@H]3CN(Cc4nccs4)C[C@H]2N3)cc1)/c1ccccc1 (some centres undefined) | 17 µM
C/C(=N\NC(=O)c1cccc(Br)c1)c1ccc(Br)cc1 | 16.6 µM
Cc1nc2c(=O)n(C)c(=O)n(C)c2nc1Cl | 25.8 µM
C=CCNC(=S)N/N=C/c1ccc(-c2cc(Cl)ccc2Cl)o1 | 5.15 µM
COc1ccc(C(=O)Nc2ccccc2C(=O)Nc2ccncc2)cc1 | 0.413 µM
N#Cc1nccnc1S(=O)(=O)c1cccs1 | 0.467 µM
C=CCn1cc(Cl)cc(C(=O)Nc2ccccc2)c1=O | 19.7 µM
O=C(Nc1ccc(C(F)(F)F)cc1)N1C[C@@H]2N[C@H](C1)C2c1ccc(/C=C/c2ccccc2)cc1 (some centres undefined) | 8.24 µM and 1.64 µM
CCOCCCNC(=O)c1oc2ccc3c(c2c1C)C(O)CC(C)(C)O3 (centres undefined) | 5.92 µM
Cc1c(C(=O)OCC(=O)N2CC(=O)Nc3ccccc32)oc2ccc(Br)cc12 | 4.76 µM
FC(F)(F)c1cc(CCN2CCNC[C@@H]2c2ccccc2)cc(C(F)(F)F)c1 | 6.96 µM
CC(C)(C(=O)N1CCC1(C)C(=O)NS(=O)(=O)c1ccc(Br)cc1)c1ccccc1 (centres undefined) | 12.7 µM
N#CCc1nn(-c2ccccc2)c2ncnc(N)c12 | 11.9 µM
COc1cc(CN2CCc3ccccc3C2)ccc1O | 6.75 µM
FC(F)(F)c1cc(CCN2CCNC[C@@H]2CC2CCCCC2)cc(C(F)(F)F)c1 | 5.27 µM
CCCCc1c(-c2ccccc2OC)ncn1C(C)c1ccc(Cl)cc1 (centres undefined) | 12.6 µM
CC(C)CC#Cc1ccc2c(c1)O[C@@H](CN(C)Cc1ccccc1)[C@H](C)CN([C@H](C)CO)S2(=O)=O | 9.77 µM
Fc1ccc(-c2ccc(C3[C@@H]4CN(Cc5cccc(F)c5)C[C@H]3N4)cc2)cc1 (some centres undefined) | 5.48 µM
CC(C)(C)c1cc(NCCCn2ccnc2)n2ncc(-c3ccc(Cl)cc3)c2n1 | 6.19 µM
Cc1ccc2oc(-c3ccc(NC(=O)c4ccc5c(c4)OCO5)cc3)nc2c1 | 4.81 µM
NC(N)=N/N=C/c1ccc(OCc2ccccc2Cl)cc1 | 16.4 µM

SMILES | AC40
CC(=O)Nc1sc(N/N=C\c2cccc(Cl)c2)nc1-c1cccs1 | 6.6 µM
CCC(C)Sc1cccc(-c2nc3cnccn3c2NC2CCCCC2)c1 (centres undefined) | 5.37 µM
CCn1cc(S(=O)(=O)NCCc2ccc(OC)c(OC)c2)cn1 | 3.87 µM
CCOc1ccc(-c2nnn(CC(=O)Nc3ccccc3OC)n2)cc1OCC | 2.04 µM
CCOc1ccc(CCNC(=O)Cn2ccc3ccccc3c2=O)cc1OCC | > 35 µM (inactive)
O=C(Nc1ccc2ccccc2c1)c1cccc2ccccc12 | 8.55 µM
O=C(Nc1nc2ccccc2n1Cc1ccc(Cl)cc1)c1ccco1 | 7.18 µM
COc1cc(NC(=O)c2cccc(C)c2)ccc1NC(=O)c1cc2ccccc2o1 | 3.24 µM
COc1ccc(-c2ccc(SCc3ccccn3)nn2)cc1OC | 6.41 µM
CC(C)C(Cl)=NOC(=O)Nc1ccc(S(N)(=O)=O)cc1 | 10.2 µM
Cc1ccccc1C(=O)Nc1nnc(-c2ccc(C(C)(C)C)cc2)s1 | 18.3 µM
O=C1c2cccnc2C(Nc2cccc(F)c2)N1Cc1ccco1 (centres undefined) | 28.5 µM
O=C(Nc1ccc(F)cc1)Nc1cc(OCC(F)(F)F)cc(OCC(F)(F)F)c1 | 7.63 µM
Cc1cc(C)nc(NS(=O)(=O)c2ccc(N/C=C/C(=O)c3ccc(Cl)c(Cl)c3)cc2)n1 | 3.7 µM
COc1ccc(-c2nc(-c3cccnc3)no2)cc1OC | > 35 µM (inactive)
CCOC(=O)c1c(C)n(-c2ccc(C)cc2)c2ccc(OCC(O)CN3CCN(C)CC3)cc12 (centres undefined) | 12.3 µM
OC(c1ccccc1)(c1ccccc1)C1CCN(CCCOc2cccc(OC(F)(F)F)c2)CC1 | 5.24 µM
O=C(COc1ccccc1)Nc1sc2c(c1C(=O)NCc1cccnc1)CCCC2 | 13.1 µM
Cc1c(CC(=O)O)c(=O)oc2c(C)c(OCc3ccccc3Br)ccc12 | > 35 µM (inactive)
COc1ccc(CN2CCN(Cc3ccccc3F)CC2)cc1 | > 35 µM (inactive)
Nc1c(C(=O)Nc2ccc3c(c2)OCCO3)nnn1Cc1ccc(Cl)cc1 | 12.7 µM
